Values joined by “and” are separate entries in the source; they are usually repeats but may differ in a detail not shown here. Identical values can stand only once.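 Results reflect a 48-hour exposure of cells in 96-well plates to compound at five concentrations. The concentration for 50% growth inhibition is given as GI50. Definition used: TGI = concentration required for complete inhibition of growth.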
Tests used:
Experiment in all cases: NCI tumour cell line growth inhibition, 48 h
[1] = system: COLO 205 colon
[2] = system: EKVX NSCLC
[3] = system: HCT-15 colon
[4] = system: HL-60(TB) leukemia
[5] = system: OVCAR-8 ovarian
[6] = system: RPMI-8226 leukemia
[7] = system: SF-539 CNS
[8] = system: SK-MEL-2 melanoma
[9] = system: SNB-75 CNS
[10] = system: U251 CNS

SMILES	GI50 [1]	TGI [1] [µM]	GI50 [2] [µM]	TGI [2] [µM]	GI50 [3]	TGI [3] [µM]	GI50 [4] [µM]	TGI [4] [µM]	GI50 [5] [µM]	TGI [5] [µM]	GI50 [6] [µM]	TGI [6] [µM]	GI50 [7]	TGI [7] [µM]	GI50 [8] [µM]	TGI [8]	GI50 [9]	TGI [9]	GI50 [10]	TGI [10] [µM]
CCOC(=O)[C@@H](C)C[C@H](Cc1ccccc1)NC(=O)c1csc([C@@H](C[C@H](C(C)C)N(C)C(=O)[C@@H](NC(=O)[C@H]2C[C@H](O[Si](C)(C)C(C)(C)C)CCN2C)C(C)C)OC(C)=O)n1	0.145 µM	0.459	0.505	> 8.33	0.427 µM	> 5.02	0.249	0.896	0.744	> 8.33	0.275	2.25	0.21 µM	0.625	0.263	> 7.21 µM	0.205 µM	0.76 µM	0.319 µM	> 4.18
c1ccc2c(c1)[I+]c1ccccc1-2	> 50 µM	> 50	19.4	> 50	> 50 µM	> 50	> 50	> 50	> 50	> 50	31.7	> 50	40.6 µM	> 50	> 50	> 50 µM	8.95 µM	> 50 µM	25.5 µM	> 50
COc1cc2c(cc1C)NC(=O)/C2=C\c1cc(OC)c(OC)c(OC)c1	> 100 µM	> 100	> 100	> 100	> 100 µM	> 100	13.8	45.7	> 100	> 100	> 100	> 100	48.4 µM	> 100	34.3	> 100 µM	12.9 µM	31.4 µM	22.9 µM	> 100
CC(=O)OCC1OC(n2c(-c3ccccc3)cc(-c3ccco3)c(C#N)c2=O)C(OC(C)=O)C(OC(C)=O)C1OC(C)=O (stereo not given)	> 31.6 µM and 87 µM	> 100	–	> 100	> 100 µM and 18.3 µM	> 100	–	> 100	–	> 100	–	> 100	16.3 µM and 84.6 µM	> 100	–	36.9 µM and > 100 µM	13.3 µM and > 100 µM	40.9 µM and > 100 µM	98 µM and 17.8 µM	> 100
O=C(Oc1ccc(O)c2c(=O)n3c(cc12)[nH]c1ccccc13)c1ccccc1	19.9 µM	45.3	24.3	> 100	12.9 µM	28.2	21.6	51.7	11.1	32.5	11.8	51.4	6.63 µM	36.6	21	> 100 µM	28.3 µM	> 100 µM	10.1 µM	27.4
CC(=O)O[C@H]1C(N(C)C(=O)c2ccccc2)CC[C@]2(C)C3CC[C@@]4(C)C(CC(O)[C@@H]4C(C)N(C)C)[C@@H]3CCC12 (stereo not given in full)	–	> 100	–	> 100	–	> 100	–	> 100	–	> 100	–	> 100	–	> 100	–	> 100 µM	–	> 100 µM	–	> 100
NC(N)=N/N=C(/c1nc2ccc([N+](=O)[O-])cc2[nH]c1=O)C(O)c1ccco1 (stereo not given)	–	> 100	–	> 100	–	> 100	–	> 100	–	> 100	–	> 100	–	> 100	–	> 100 µM	–	> 100 µM	–	> 100
COC(=O)c1c(-c2ccccc2)cc2c3cc(-c4ccccc4)c(C(=O)OC)n3c3ccccc3n12	–	> 100	–	> 100	–	> 100	–	> 100	–	> 100	–	> 100	–	> 100	–	> 100 µM	–	91.6 µM	–	> 100
CCN(CC)CCn1c2c3ccccc3ccc2c2oc(=O)c3ccccc3c21	–	> 100	–	> 100	–	> 100	–	> 100	–	> 100	–	> 100	–	66.1	–	> 100 µM	–	42.8 µM	–	> 100
O=C1C(Br)=C[C@H]2C3C=CC(Br)(C3=O)[C@@H]12 (stereo not given in full)	–	21.4	–	28.8	–	24.6	–	23	–	26	–	> 100	–	39.4	–	28.4 µM	–	92.8 µM	–	27.3
O=C(C(O)c1cn(Cc2ccccc2)c2ccccc12)N1CCCCC1 (stereo not given)	–	> 100	–	> 100	–	> 100	–	> 100	–	> 100	–	> 100	–	> 100	–	> 100 µM	–	> 100 µM	–	> 10
O=C(Nc1ccccc1C(F)(F)F)c1cccc(NC2=C(Cl)C(=O)N(Cc3ccccc3)C2=O)c1	39.4 µM	> 100	13.2	52.6	3.8 µM	> 24.5	31.8	> 100	42.3	> 72.1	13.1	> 100	12.1 µM	34.8	14.9	79 µM	30.7 µM	> 57.6 µM	6.68 µM	41.7
Cc1cc2nc3c(=O)n(C)c(=O)nc-3n(-c3ccc(Cl)cc3)c2cc1C	–	9.76	–	43.9	–	21.9	–	24.3	–	43.7	–	26.4	–	25.4	–	34.9 µM	–	24.4 µM	–	29.9
NC(=O)c1c[se]c(C2OC(CO)C(O)C2O)n1 (stereo not given)	–	> 100	–	> 100	–	> 100	–	> 100	–	> 100	–	> 100	–	> 71.8	–	> 100 µM	–	> 100 µM	–	> 100
C=CCNC(=S)N1CC(C)C(=O)Nc2ccccc21 (stereo not given)	–	> 100	–	> 100	–	> 100	–	> 100	–	> 100	–	> 100	–	> 100	–	> 100 µM	–	> 100 µM	–	> 100
C=CC(=O)N1CCCC(n2nc(-c3ccc(Oc4ccccc4)cc3)c3c(N)ncnc32)C1 (stereo not given)	14.1 µM	28.5	0.164	6.65	12.6 µM	28.9	21.9	44.5	6.56	20.4	6.57	31.2	6.73 µM	21	16	31.6 µM	3.55 µM	14.2 µM	6.11 µM	20.4

Source: PubChem BioAssay (NCI)
